Consider ten compounds from PMC7726444 (Frontiers in Pharmacology, 2020).

Each structure is given as a SMILES string. Like-named read-outs stand apart in the source and are kept apart here.

Experiment [1] concerns the target T1, doubly truncated TPH1 (ΔNH102-ΔCOOH402) (Homo sapiens, UniProt P17752).
T1 construct: The ΔNH102-ΔCOOH402 human TPH1 gene was cloned; six-His (C); made in house
The experiment in a line: Tryptophan hydroxylase enzymatic activity assay (HPLC quantification of 5-OH-Trp), doubly truncated TPH1. Type of experiment: biochemical. The note with it: for reduction of TPH1 activity: 100 µM compound, preliminary activity assay; for IC50: doubly truncated TPH1, 20 µM L-Trp, 200 µM BH4, 37°C, mean (95% confidence interval), three experiments in duplicate; for fold less potent inhibitor of TPH1 than omeprazole: relative to omeprazole TPH1 IC50.

The target in the next experiment is T2, WT full-length TPH2 (Homo sapiens, UniProt Q8IWU9).
T2 construct: both the doubly truncated TPH1 protein and WT full-length TPH2 protein; made in house
T2 sequence (Q8IWU9 1-490): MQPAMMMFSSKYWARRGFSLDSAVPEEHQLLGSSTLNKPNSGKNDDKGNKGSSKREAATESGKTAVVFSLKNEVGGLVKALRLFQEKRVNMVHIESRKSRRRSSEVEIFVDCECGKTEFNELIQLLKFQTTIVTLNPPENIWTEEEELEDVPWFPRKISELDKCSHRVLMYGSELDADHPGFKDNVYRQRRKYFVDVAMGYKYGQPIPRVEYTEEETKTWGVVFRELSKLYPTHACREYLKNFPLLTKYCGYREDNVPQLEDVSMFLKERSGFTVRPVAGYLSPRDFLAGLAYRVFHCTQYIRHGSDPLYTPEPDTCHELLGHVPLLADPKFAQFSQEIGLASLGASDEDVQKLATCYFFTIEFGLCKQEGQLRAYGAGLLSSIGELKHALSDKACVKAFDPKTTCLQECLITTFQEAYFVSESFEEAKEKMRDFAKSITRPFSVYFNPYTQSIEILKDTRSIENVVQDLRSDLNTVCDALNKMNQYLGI
Kind of experiment: Tryptophan hydroxylase enzymatic activity assay, WT full-length TPH2. The note with it: mean (95% confidence interval), three experiments in duplicate. The experiment is classed as biochemical.

Experiment [2] deals with T3, MAO-A (Homo sapiens, UniProt P21397).
T3 construct: purchased BioVision, Inc, Milpitas, CA
T3 sequence (P21397 1-527): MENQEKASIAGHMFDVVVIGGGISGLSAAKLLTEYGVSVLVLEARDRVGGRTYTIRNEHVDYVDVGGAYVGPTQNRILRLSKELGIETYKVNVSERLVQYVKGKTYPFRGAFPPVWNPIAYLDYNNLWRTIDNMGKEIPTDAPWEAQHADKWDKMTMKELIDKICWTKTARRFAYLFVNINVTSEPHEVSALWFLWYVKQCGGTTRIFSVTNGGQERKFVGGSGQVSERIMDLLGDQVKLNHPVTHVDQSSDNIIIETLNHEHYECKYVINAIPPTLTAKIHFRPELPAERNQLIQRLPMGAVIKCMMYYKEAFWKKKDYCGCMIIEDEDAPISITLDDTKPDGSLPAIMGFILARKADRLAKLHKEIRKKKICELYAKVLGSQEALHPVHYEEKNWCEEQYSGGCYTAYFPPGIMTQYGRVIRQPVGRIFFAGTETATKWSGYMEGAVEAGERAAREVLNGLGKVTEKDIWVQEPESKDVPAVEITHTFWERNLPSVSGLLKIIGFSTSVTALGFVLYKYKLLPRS
The experiment in a line: MAO-A enzymatic activity assay (MAO-A Inhibitor Screening Kit, fluorimetric detection of H2O2). The experiment is classed as biochemical. The following applies: 25°C, 15 min kinetic read; mean (95% confidence interval), three experiments. The procedure:
The experiments were conducted following the manufacturer’s (BioVision, Inc, Milpitas, CA) instructions and were based on the fluorimetric detection of H2O2, a byproduct of the enzymatic activity of MAO-A, by measuring the fluorescence (Excitation/Emission at 535/587 nm) kinetically at 25°C for 15 min using a Tecan Spark plate reader (Tecan Group Ltd, Männedorf, Switzerland).
Relative inhibition of MAO-A was calculated as a percentage using the following Eq. 2: %Relative inhibition=((Slope of EC−Slope of S)/Slope of EC)×100 (2)
The slopes for all samples, either containing Enzyme Control (EC) or test substance (S), were calculated by dividing the net change in relative fluorescence units (ΔRFU; RFU2–RFU1) by the time interval (Δt; t2 –t1).

Experiment [3] addresses T3, MAO-A. Details: method as in Petzer et al., 2013. The following applies: ref Petzer et al., 2013; cited from earlier work.

T1 sequence (P17752 102-402, stated change not applied): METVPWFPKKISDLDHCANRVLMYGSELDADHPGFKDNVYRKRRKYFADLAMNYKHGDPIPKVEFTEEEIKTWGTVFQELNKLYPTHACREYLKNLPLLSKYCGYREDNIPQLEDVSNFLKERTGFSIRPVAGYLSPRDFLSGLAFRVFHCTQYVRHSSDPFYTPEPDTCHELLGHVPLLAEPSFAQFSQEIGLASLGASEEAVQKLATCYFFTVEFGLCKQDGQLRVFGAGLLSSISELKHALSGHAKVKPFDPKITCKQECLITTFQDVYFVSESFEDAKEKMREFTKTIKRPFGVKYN

As to `CC1CCc2cc(F)cc3c(=O)c(C(=O)O)cn1c23` (stereo not drawn) [flumequine], in experiment [1], the “reduction of TPH1 activity” value was “more than 50%” and the IC50 is around 100 µM.
Take `COCCCOc1ccnc(C[S+]([O-])c2nc3ccccc3[nH]2)c1C` (stereo not drawn) [Rabeprazole]: the figures for the half-inhibitory concentration (IC50) (in experiment [1]; at WT full-length TPH2; against MAO-A [2]) were 7.57 µM, 2.13 µM and 12.8 µM, respectively.
Turning to `COc1ccnc(C[S+]([O-])c2nc3ccc(OC(F)F)cc3[nH]2)c1OC` (stereo not drawn) [Pantoprazole], the IC50 in experiment [1] stood at 21.7 µM; against WT full-length TPH2 it was 8.2 µM; against MAO-A [2], 462 µM. Besides, in experiment [1], the “fold less potent inhibitor of TPH1 than omeprazole” value (“fold less potent inhibitor” below) was 6 fold.
For the compound `COc1ccnc(C[S+]([O-])c2nc3cc(-n4cccc4)ccc3[nH]2)c1C` (stereo not drawn) [Ilaprazole], the IC50 on WT full-length TPH2 was found to be 0.53 µM; on MAO-A [2] it was 29 µM.
As for `Cc1c(OCC(F)(F)F)ccnc1C[S@@+]([O-])c1nc2ccccc2[nH]1` [(R)-lansoprazole], the IC50 in experiment [1] amounted to 18.8 µM; against WT full-length TPH2, 3.36 µM; on MAO-A [2], 137 µM. For the same compound, the “fold less potent inhibitor” value in experiment [1] was determined as 6 fold.
Regarding `COC(=O)C1=C(C#N)NC(C)=C(C(=O)OC(C)C)C1c1cccc([N+](=O)[O-])c1` (stereo not drawn) [nilvadipine], in experiment [1], the “reduction of TPH1 activity” value is reported as “more than 50%” and the IC50 is around 100 µM.
Regarding `COc1ccc2nc([S@@+]([O-])Cc3ncc(C)c(OC)c3C)[nH]c2c1` [Esomeprazole], the IC50 in experiment [1] was 3.76 µM; on WT full-length TPH2, 2.15 µM; at MAO-A [2] it was 18 µM; at MAO-A [3], 23 µM.
As to `Cc1c(OCC(F)(F)F)ccnc1C[S+]([O-])c1nc2ccccc2[nH]1` (stereo not drawn) [Lansoprazole], the IC50 in experiment [1] came to 24.6 µM; on WT full-length TPH2, 5.21 µM; against MAO-A [2] it was 251 µM. Besides, in experiment [1], the “fold less potent inhibitor” value came to 6 fold.
For the compound `COc1ccc2[nH]c([S+]([O-])Cc3ncc(C)c(OC)c3C)nc2n1` (stereo not drawn) [Tenatoprazole], the IC50 stood at 2.16 µM in experiment [1], 4.9 µM against WT full-length TPH2 and 29.2 µM against MAO-A [2].
Take `CSc1nc2cc(Cl)c(Oc3cccc(Cl)c3Cl)cc2[nH]1` [triclabendazole]: in experiment [1], the “reduction of TPH1 activity” value is recorded as “more than 50%” and the IC50 was around 100 µM.

One may read the IC50 as the concentration that inhibits the measured activity by half.
